Like-named read-outs stand apart in the source and are kept apart here.

The target of series [1] is CCR5 (Homo sapiens, UniProt P51681). In words: RANTES-induced intracellular calcium signal in THP-1, CCR5+ cells. The note with it: data not shown.
The test system of series [2] is equine infectious anemia virus (EIAV). In words: Antiviral activity in EIAV-infected ED fibroblasts. It counts as cell-based. The note with it: for EIAV replication in ED cells (FIG. 8): R3G at 12.5 and 25 μM, R4K at 50 and 100 μM, 10 pfu per cell. Here is the method: Both equine dermal fibroblasts (ED) and Equine Infectious Anemia Virus (EIAV), Wyoming isolate (Malmquist et al., 1973) were gifts from Profs. A. Yaniv and A. Gazit, from the Sackler Medical School of the Tel-Aviv University, Israel. ED cells were plated on plastic 6-well tissue culture plates (Nunclone) at density of […] per well in 2 ml of DMEM/10% FCS (fetal calf serum). The medium was removed after 12-20 hours and the cells were inoculated for 2 hours with 0.5 ml DMEM/10% FCS containing 5×10^6 pfu (plaque forming units) of EIAV and 10 μg/ml of polybrene (hexadimetrine bromide, Sigma) (Carpenter and Chesebro, 1989). Following the incubation, another 2.5 ml of DMEM/10% FCS was added to each well. […] Every […], 1.2 ml samples of the medium were collected and replaced with same amount of medium, containing radioactive uridine and the tested. The samples were clarified from cell debris by spinning at 12000 rpm for 5 minutes on the Eppendorf centrifuge. Viral particles from the clarified supernatants were collected by ultracentrifugation at 75000 rpm, 4° C. on the Beckman TL 100 centrifuge using TLA 100.2 rotor (Cheevers et al., 1977). The supernatants were carefully discarded and the pellet was resuspended in 200 μl of 1% SDS/5% Tritone X-100, mixed with 1 ml Ultima Gold scintillation liquid (Packard) and counted on LS 1701 Bruker scintillation counter. Typical duration of the experiment was 15 days; EIAV growth curves in the presence of various concentrations of the conjugates in the medium were obtained. Development of the cytopathic effect (cpe) in the infected ED cells was monitored by light microscopy.
Equine infectious anemia virus (EIAV) of Wyoming strain is adapted to grow in equine dermal fibroblasts (ED), without damaging them with a titer of 1 μfu per cell (Malmquist virus). […] In the absence of inhibitors, EIAV proliferated in the ED cells reaching a plato 9-12 days after infection (FIG. 8). […] Development of cpe started 10-12 days after infection, reaching a maximum on days 15-17, followed by rapid cell death and exfoliation from the plastic bottom of the well.

Series [3] deals with HIV-1 Ba-L. The series is described as follows: Anti-HIV assay, β-galactosidase activity in P4-CCR5 MAGI cells. Type of series: cell-based. How it is done:
(§1) The HIV-1 strains NL4-3 and Ba-L and the CD4^+lymphocytic cell lines SUP-T1, MT-4 and MT-2 and P4-CCR5 MAGI cells were obtained from the MRC AIDS reagent program or the NIH, AIDS Research and Reference Reagent Program.
(§2) The cells were infected by incubation with different titers of the HIV-1 strains for 2 hrs at 37° C. in the presence or absence of the AAC of the invention. Then the cells were washed from the virus by centrifugation at 400 g and the supernatants were discarded. The cells were resuspended in culture medium, supplemented with different concentrations of the test compounds. The cells were allowed to proliferate for 5 days, the number of viable cells was quantified by a tetrazolium-based colorimetric method (CellTiter 96® AQueous One solution Cell Proliferation Assay, Promega). Anti-HIV activity in P4-CCR5 MAGI cells was done as follows: cells (1×10^5/ml) were infected with 10 ng/ml of p24 antigen of HIV-1 Ba-L in the presence of varying concentrations of the test compound. 24 hours post infection, cells were washed twice with PBS and resuspended in the medium containing the appropriate drug concentration. Five days after infection the cells were washed with PBS and evaluated for β-galactosidase activity.

Series [4] deals with HIV-1 RF. In words: Anti-HIV assay, MTT. Type of series: cell-based.
The test system of series [5] is TAR RNA. In words: L-arginine-Amberlite affinity column elution of TAR RNA. It counts as binding, HIV-1. The note with it: concentration that elutes 50% of TAR RNA from L-arginine-Amberlite affinity column.
Series [6] deals with HIV-1 NL4-3. In words: Anti-HIV assay, MTT, MT-4 cells. Type of series: cell-based. How it is done:
as §1, §2

Series [7] deals with MT-4 cells. In words: Cytotoxicity in MT-4 cells, MTT. Type of series: cell-based, human. The note with it: viability of MT-4 cells, MTT assay. Here is the method:
as §2

Series [8] deals with HIV-1 AZT-resistant clinical isolate AOM. In words: Anti-HIV assay, MTT. It counts as cell-based.
Series [9] deals with MT-2 cells as well as PMBC lines ETH and IS. The note with it: ratio CC50/EC50. Here is the method: as §2
[10] abbreviates: MTT assay, read-out: EC50 HIV-1 RF.

Chain of CCR5 (P51681 whole entry): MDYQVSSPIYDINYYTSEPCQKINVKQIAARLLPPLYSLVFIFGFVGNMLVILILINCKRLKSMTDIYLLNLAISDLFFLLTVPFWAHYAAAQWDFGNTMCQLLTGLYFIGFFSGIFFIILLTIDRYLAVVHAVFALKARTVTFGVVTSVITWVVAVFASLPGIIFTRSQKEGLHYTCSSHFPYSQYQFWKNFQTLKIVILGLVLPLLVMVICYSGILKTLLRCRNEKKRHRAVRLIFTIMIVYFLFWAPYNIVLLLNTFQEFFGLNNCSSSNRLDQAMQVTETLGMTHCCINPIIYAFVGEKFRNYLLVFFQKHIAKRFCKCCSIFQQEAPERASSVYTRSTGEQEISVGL

As a reminder, the EC50 is the concentration giving half of the maximal effect. One may read the CC50 as the concentration at which the toxic effect on the cells reaches its halfway point. A lower CC50 goes with greater toxicity to the cells. Turning to `N=C(N)NCCCC(N)C(=O)NCC1OC(OC2C(NC(=O)C(N)CCCNC(=N)N)CC(NC(=O)C(N)CCCNC(=N)N)C(OC3OC(CO)C(O)C(NC(=O)C(N)CCCNC(=N)N)C3O)C2O)C(O)C(O)C1O` (centres unmarked) [R4K, Tetraargininamido-kanamycin A conjugate], in series [1], the “intracellular Ca2+ signal induced by RANTES” value is given as “did not inhibit”. For the same compound, the “EIAV replication in ED cells (FIG. 8)” value in [2] is on record as “inhibited the viral growth”. The concentration giving a half-maximal response (EC50) was greater than 113 µM in series [3], greater than 113 µM in series [4] (setting [10]), 31 µM in series [6] and 67 µM in [8]. For the same compound, the CE50 in series [5] turned out to be 2.5 mM. Besides, the CC50 in series [7] was greater than 1130 µM.

For the compound “Triargininamido-gentamicin conjugate [R3G]”, the “intracellular Ca2+ signal induced by RANTES” value in [1] is listed as “did not inhibit”. Besides, in series [9], the TI50 is reported as 50-85. For the same compound, in [2] (25 μM, day 13-15), the “phenotype of EIAV-infected ED cells” value is on record as “preserved normal fibroblast phenotype”. Besides, in [2] (25 and 50 μM, after 13-15 days), the “inhibition of cpe development” value was “noticeable inhibition of the cpe development”. The “EIAV replication in ED cells (FIG. 8)” value in [2] is recorded as “inhibited the viral growth”. The “viral titer compared to control” value in [2] (added during cpe onset (day 12-13), read at day 15) is recorded as “decreased at least twice”. Besides, the EC50 is 29 µM in [3]; 35 µM in series [4] (setting [10]); 16 to 35 µM in [4] (range over HIV-1 RF strain, AOM clinical isolate and M-tropic Ba-L strain, read-out: EC50); 15 µM in series [6]; 16 µM in series [8]. The CE50 in [5] is 1.4 mM.
